{"source": "patent US20230124634A1", "about": "“ANTIBACTERIAL COMPOSITION” (CONOPCO, INC., D/B/A UNILEVER, priority 2020, published 2023)", "key": {"[1]": {"tested_on": "Staphylococcus aureus ATCC 6538", "experiment": "In-Vitro Time-Kill assay (EN 1040:2005 with minor modifications)", "format": "cell-based", "experimental": "Inoculums of S. aureus at about 10^7.5 colony forming units per milliliter (CFU/mL) were prepared from 24-hour cultures on agar plates. […]\nThe log10 of (number of surviving cells (CFU/mL)/initial number of cells) is plotted versus the exposure time. […] The exposure time is limited to only 60 s, as this time frame is a realistic estimate of the amount of time devoted to hand washing.\nSurfactant Solution Preparation—Solution preparation consisted of mixing the surfactant solution with an equal volume of the appropriate buffer to form a test solution containing 50% of the original formulation concentration. Sodium carbonate/bicarbonates buffers (0.1 M) were prepared for use at pH 10 and 7, respectively, while sodium acetate buffer was used at pH 5.\nThe bacteria were stored at −80° C. and fresh working cultures were prepared by streaking on Tryptic Soy Agar plates for 24 hours at 37° C. and then preparing second subcultures in the same way before each experiment.\nFollowing this procedure, stationary-phase bacterial cultures at approximately […] colony forming units (CFU) per mL (GF-U) were treated with the surfactant solution (as described above) at 25° C., rather than at 20° C. as specified in the Standard. In constructing the test sample, 8 parts by weight of the surfactant solution was combined with 1 part by weight of the culture and 1 part by weight of water. After 10, 20, 30, and 60 seconds of exposure, the samples were neutralized to arrest the antibacterial activity of the surfactant solution. […] The test solutions were serially diluted, plated on solid medium, and incubated for 24 hours. The surviving cells were then enumerated. Bactericidal activity was defined as the log10 reduction in CFU relative to the initial bacterial concentration at 0 seconds. Cultures not exposed to surfactant solution acted as the no-treatment controls. The log10 reduction was calculated using the formula:\nlog10 reduction=log10(CFU in no-treatment control)−log10(CFU in treated sample)"}, "[2]": {"settings": "cited from earlier work"}, "[3]": {"experiment": "Silver ion solubility derived from solubility product (Ksp) in water at 25° C.", "settings": "calculated from Ksp", "source_text": "More particularly, silver ion solubility [Ag+], a value given in mol/L may be calculated using the formula:"}, "[4]": {"settings": "pH 5; cited from earlier work"}, "[5]": {"settings": "throughout the pH interval claimed"}}, "data": [{"compound": "O=[N+]([O-])[O-].[Na+]", "note": "[NaNO3, sodium nitrate]", "values": [{"measurement": "NaNO3 necessary to recover a one unit log10 reduction in S. aureus", "setting": "[1]; in the presence of 0.03 M NaCl, SLES/Ag^+, pH 7.0", "result": "≥ 0.3", "unit": "M"}]}, {"compound": "CCCCCCCCCCCCOS(=O)(=O)[O-].[Na+]", "note": "[SDS, sodium dodecyl sulfate]", "values": [{"measurement": "synergy with silver ion", "setting": "[1]; pH 5", "result": "strong synergy with silver ion"}, {"measurement": "intrinsic biocidal properties", "setting": "[1]; pH 5, on its own", "result": "quite biocidal on its own"}, {"measurement": "inherent biocidal action", "setting": "[1]; [5]", "result": "limited inherent biocidal action"}, {"measurement": "synergy with silver ion", "setting": "[1]; [5]", "result": "strong synergy with silver ion"}]}, {"compound": "O=C([O-])c1ccccc1.[Ag+]", "note": "[Silver benzoate]", "values": [{"measurement": "Ksp (mol/L in water at 25° C.)", "setting": "[2]", "result": "2.5e-05", "unit": "mol/L"}]}, {"compound": "[Br][Ag]", "note": "[Silver bromide]", "values": [{"measurement": "Ksp (mol/L in water at 25° C.)", "setting": "[2]", "result": "5.3e-13", "unit": "mol/L"}]}, {"compound": "[Cl][Ag]", "note": "[Silver chloride]", "values": [{"measurement": "Silver Ion Solubility [Ag+] (mol/L in water at 25° C.)", "setting": "[3]", "result": "1.3e-05", "unit": "mol/L"}, {"measurement": "Ksp (mol/L in water at 25° C.)", "setting": "[2]", "result": "1.8e-10", "unit": "mol/L"}]}, {"compound": "O=C([O-])CC(O)(CC(=O)[O-])C(=O)[O-].[Ag+].[Ag+].[Ag+]", "note": "[Silver citrate]", "values": [{"measurement": "Ksp (mol/L in water at 25° C.)", "setting": "[2]", "result": "2.5e-16", "unit": "mol/L"}]}, {"compound": "O=S(=O)([O-])[O-].[Ag+].[Ag+]", "note": "[Silver sulfate]", "values": [{"measurement": "Ksp (mol/L in water at 25° C.)", "setting": "[2]", "result": "1.4e-05", "unit": "mol/L"}]}, {"compound": "O=C(O)c1ccccc1", "note": "[benzoic acid]", "values": [{"measurement": "percentage of organic acid preservative remaining undissociated (and active)", "setting": "[4]", "result": 13, "unit": "%"}]}, {"compound": "[Ag+]", "note": "[silver ion]", "values": [{"measurement": "minimum level of silver ion necessary to see enhanced biocidal action", "setting": "[1]; in the presence of 10% SLES and 0.5 M NaNO3, pH 7 and 25° C.", "result": "≥ 0.03", "unit": "ppm"}]}, {"compound": "C/C=C/C=C/C(=O)O", "note": "[sorbic acid]", "values": [{"measurement": "percentage of organic acid preservative remaining undissociated (and active)", "setting": "[4]", "result": 37, "unit": "%"}]}, {"compound": "Sodium methyl cocoyl taurate [reference compound]", "values": [{"measurement": "synergy with silver ion", "setting": "[1]; pH 5", "result": "nor does it enhance the biocidal action of silver ion"}, {"measurement": "intrinsic biocidal properties", "setting": "[1]; pH 5, on its own", "result": "does not have intrinsic biocidal properties"}, {"measurement": "biocidal, inherently or in combination with silver ion", "setting": "[1]; pH 7", "result": "ineffective"}]}, {"compound": "octyl phenol ethoxylate [Triton X-100, reference compound]", "values": [{"measurement": "biocidal, inherently or in combination with silver ion", "setting": "[1]; pH 5, 10-60 second time scale", "result": "not biocidal"}, {"measurement": "biocidal, inherently or in combination with silver ion", "setting": "[1]; pH 7", "result": "ineffective"}]}, {"compound": "sodium cocoyl glutamate [reference compound]", "values": [{"measurement": "biocidal, inherently or in combination with silver ion", "setting": "[1]; pH 7", "result": "ineffective"}]}, {"compound": "sodium cocoyl glycinate [reference compound]", "values": [{"measurement": "biocidal, inherently or in combination with silver ion", "setting": "[1]; pH 7", "result": "ineffective"}]}, {"compound": "sodium lauroamphoacetate [reference compound]", "values": [{"measurement": "biocidal, inherently or in combination with silver ion", "setting": "[1]; pH 7", "result": "ineffective"}]}, {"compound": "sodium lauryl ether sulfate [SLES]", "values": [{"measurement": "synergy with silver ion", "setting": "[1]; pH 5", "result": "strong synergy with silver ion"}, {"measurement": "log10 reduction", "setting": "[1]; pH 5, on its own", "result": "about 2 log10"}, {"measurement": "log10 unit reduction", "setting": "[1]; pH 7, SLES at 1% (top-half of Table 5)", "result": "≤ 1", "unit": "log10"}, {"measurement": "log10 unit reduction", "setting": "[1]; pH 7, SLES at 10% (second half of Table 5)", "result": "≤ 1", "unit": "log10"}]}, {"compound": "sodium lauryl ether sulfate with (on average) 1 ethoxy group [SLES-1 EO]", "values": [{"measurement": "log10 reduction", "setting": "[1]; pH range of 7-10, in the presence of silver ion", "result": "about 4 log10"}, {"measurement": "log10 reduction", "setting": "[1]; pH range of 7-10, without silver", "result": "about 0.5 log10"}, {"measurement": "inherent biocidal action", "setting": "[1]; [5]", "result": "limited inherent biocidal action"}, {"measurement": "synergy with silver ion", "setting": "[1]; [5]", "result": "strong synergy with silver ion"}]}, {"compound": "sodium lauryl ether sulfate with (on average) 3 ethoxy groups [SLES-3EO]", "values": [{"measurement": "inherent biocidal action", "setting": "[1]; [5]", "result": "limited inherent biocidal action"}, {"measurement": "synergy with silver ion", "setting": "[1]; [5]", "result": "strong synergy with silver ion"}]}]}
